Data set [1] concerns HFF cells. Description: Design of Experiments two-factor interaction on HFF cells (cell numbers/mL). The data set is classed as cell-based, human. The conditions noted are these: culture for 5 days. An excerpt:
Optimization of mixes is achieved using Design of Experiments (DoE) computer-based design and analysis protocols. Experiments are computer designed according to number of variables to test, and serial dilutions of those variables. Results are able to indicate two factor interactions. […] This enables the optimization of many interdependent nutrients using maxima and repeat application. […] Vertical axes reflect cell numbers/mL after culture for 5 days. Horizontal axes correspond to increasing concentration of indicated lipids.

Data set [2] in a line: spectrophotometric assay using phenolphthalein indicator to determine complexation efficiency of lipids with cyclodextrins. The data set is classed as physicochemical. The following applies: extrapolated from free phenolphthalein absorbance.
Protocol: Solubilized lipids were evaluated by spectrophotometric assay using Phenolphthalein, which is known to occupy the complexing reagents used for five hydrophobic nutrients used in chemically defined mixes. Phenolphthalein is known to be displaced from the reagent when a hydrophobic moiety is complexed, so the concentration of occupied reagents was extrapolated from coloration indicating concentration of free phenolphthalein in solution when a known amount of solubilized nutrient was dosed with a known quantity of Phenolphthalein. […] Phenolphthalein is colored when free in solution at pH 8+. It readily complexes with cyclodextrins of all types and is colorless when complexed. It is preferentially displaced by more hydrophobic molecules, so when added to a known concentration of complexed lipids, the absorbance can determine how much free phenolphthalein is present, and therefore how many free cyclodextrins are present. Since the stoichiometry of mixing is 1:1, the concentration of cyclodextrins that are free to interact with Phenolphthalein logically equals the concentration of free lipid in solution.

This is an account of results in patent publication US11692167B2, “Chemically defined serum replacements for cell culture” (Montana State University, priority 2021, dated 2023).

`CCCCCC/C=C\CCCCCCCC(=O)O` [PA, palmitoleic acid]: the “two-factor interaction with PT (palmitate) on cell numbers/mL” value in data set [1] (FIG. 8A) is given as “agonistic relationship”. Further, the “two-factor interaction with α linolenic acid (ALA) on cell numbers/mL” value in data set [1] (FIG. 8B) is “antagonist relationship”.

As to `CCCCCCCC/C=C\CCCCCCCC(=O)O` [oleic acid], the “free lipid concentration in solution relative to critical micelle concentration (literature level)” value in data set [2] is “greater than the literature level”.
